According to patent US8475804B2 (priority 2009, dated 2013):
Where a name gives a salt, the structure may show the parent alone. Read-outs that look alike come from different tables or passages of the source.

Assays:
[1] = system: Ebola virus; assay: microbe, parasite or virus in culture; type: cell-based, Ebolavirus (EBOV); parameters: Max Effect HepG2: unit not given here; conditions: for Emax: HepG2, read-out: Max Effect HepG2
[2] = system: Ebola virus; assay: microbe, parasite or virus in culture; type: cell-based, Ebolavirus (EBOV)
[3] = Zaire ebolavirus, HepG2, read-out: IC50 (μM) HepG2
[4] = Zaire ebolavirus, Vero, read-out: IC50 (μM) Vero
[5] = Zaire ebolavirus, Vero, read-out: Max Effect
[6] = Zaire ebolavirus, Vero, read-out: Max Effect Vero

Compound | Emax ([1]; Zaire ebolavirus) [%] | IC50 ([2]; Zaire ebolavirus, Vero) [µM] | Emax [2, 5] [%] | Emax [2, 6] [%] | Max Effect [2] | other results
CC(C)COCC(CN(Cc1ccccc1)c1ccccc1)N1CCCC1 (stereo not shown) [Bepridil Hydrochloride Monohydrate] | 91.2 | 3.1 | 72 | 97 | – | IC50 [1, 3]: 3.2 µM; IC50 [2, 4]: 5.1 µM
CCN(CC)CCCC(C)Nc1c2ccc(Cl)cc2nc2ccc(OC)cc12 (stereo not shown) [Quinacrine Dihydrochloride] | 86.2 | 9.5 | 77.9 | 92.3 | – | IC50 [1, 3]: 1 µM; IC50 [2, 4]: 5.7 µM
CO[C@H]1C[C@H](O[C@H]2CC[C@]3(C=O)[C@H]4CC[C@]5(C)[C@@H](C6=CC(=O)OC6)CC[C@]5(O)[C@@H]4CC[C@]3(O)C2)O[C@H](C)[C@H]1O [K-Strophanthin] | 86.7 | < 0.5 | 90 | 74.2 | – | IC50 [1, 3]: 0.021 µM; IC50 [2, 4]: 0.035 µM
CCN(CC)CCOc1ccc(/C(=C(\Cl)c2ccccc2)c2ccccc2)cc1 [Clomiphene Citrate] | 93.4 | – | 91.2 | 96.4 | – | –
COc1ccc(CCN2CCC(Nc3nc4ccccc4n3Cc3ccc(F)cc3)CC2)cc1 [Astemizole] | 91.4 | – | 83.5 | 96.5 | – | –
Fc1ccc([C@@H]2CCNC[C@H]2COc2ccc3c(c2)OCO3)cc1 [Paroxetine Hydrochloride Hemihydrate] | 92 | 9.3 | 82 | 96 | – | IC50 [1, 3]: 1.4 µM; IC50 [2, 4]: 7.4 µM
O=c1[nH]c2ccccc2n1C1CCN(CCCC(c2ccc(F)cc2)c2ccc(F)cc2)CC1 [Pimozide] | 91 | 4.8 | 68.5 | 96.8 | – | IC50 [1, 3]: 1.7 µM; IC50 [2, 4]: 3.1 µM
CN1[C@@H]2CC[C@H]1C[C@@H](OC(c1ccccc1)c1ccccc1)C2 [Benztropine Mesylate] | 94.3 | – | 63.3 | 89.9 | – | –
Vinorelbine Tartrate Hydrate | – | – | – | – | 0.472 | Max Effect HepG2 [1]: 0.788; IC50 ([1]; read-out: IC50 (μM) HepG2): 0.86 µM; Max Effect Vero [2]: 0.256; IC50 ([2]; read-out: IC50): 3.2 µM
CCN(CC)CCNc1ccc(CO)c2sc3ccccc3c(=O)c12 [Hycanthone] | 96.2 | 10.4 | 59.7 | 96.8 | – | IC50 [1, 3]: 6 µM; IC50 [2, 4]: 11 µM
O=C1Nc2ccc(Cl)cc2[C@@](C#CC2CC2)(C(F)(F)F)O1 [Efavirenz] | 86 | 7.8 | 51.6 | 63.9 | – | IC50 [1, 3]: 14 µM; IC50 [2, 4]: 10 µM
OCCN1CCN(CC/C=C2/c3ccccc3Sc3ccc(C(F)(F)F)cc32)CC1 [Flupentixol Dihydrochloride] | – | – | – | – | – | IC50 ([1]; read-out: IC50 (μM) HepG2): 1.6 µM; IC50 ([2]; read-out: IC50): 3.8 µM; IC50 ([2]; read-out: IC50 (μM) Vero): 5.7 µM
CN[C@H]1CC[C@@H](c2ccc(Cl)c(Cl)c2)c2ccccc21 [Sertraline Hydrochloride] | 95 | – | 41.8 | 96.2 | – | –
O=C1CCc2ccc(OCCCCN3CCN(c4cccc(Cl)c4Cl)CC3)cc2N1 [Aripiprazole] | 94.7 | – | 80.7 | 53 | – | –
OCCN1CCN(CCCN2c3ccccc3Sc3ccc(C(F)(F)F)cc32)CC1 [Fluphenazine Hydrochloride] | 92 | – | 98.8 | 96.8 | – | –
Nc1ncn([C@@H]2O[C@H](CO)[C@@H](O)[C@H]2O)c(=O)n1 [Azacitidine] | 89.9 | 5 | 59.5 | 74.6 | – | IC50 [1, 3]: 10 µM; IC50 [2, 4]: 8.9 µM
Cl.Cl.OCCN1CCN(CCC=C2c3ccccc3Sc3ccc(C(F)(F)F)cc32)CC1 (mixture of isomers) [Flupentixol Dihydrochloride] | – | – | – | – | 0.660 | Max Effect HepG2 [1]: 0.744; Max Effect Vero [2]: 0.959
CC(=O)c1ccc2c(c1)N(CCCN1CCC(CCO)CC1)c1ccccc1S2 [Piperacetazine] | – | – | – | – | 0.641 | Max Effect HepG2 [1]: 0.954; IC50 ([1]; read-out: IC50 (μM) HepG2): 3.3 µM; Max Effect Vero [2]: 0.962; IC50 ([2]; read-out: IC50): 6.6 µM; IC50 ([2]; read-out: IC50 (μM) Vero): 12 µM
CCC(C)(C)C(=O)O[C@H]1C[C@@H](C)C=C2C=C[C@H](C)[C@H](CC[C@@H]3C[C@@H](O)CC(=O)O3)[C@H]21 [Simvastatin] | 35.3 | 2 | 69 | 55.7 | – | IC50 [2, 4]: 20 µM

Compound | Emax ([1]; Zaire ebolavirus) [%] | IC50 ([2]; Zaire ebolavirus, Vero) [µM] | Emax [2, 5] [%] | Emax [2, 6] [%] | Max Effect [2] | other results
CN(C)CCOc1ccc(/C(=C(/CCCl)c2ccccc2)c2ccccc2)cc1 [Toremifene Citrate] | 94.9 | – | – | 93.5 | 0.900 | IC50 [1, 3]: 0.026 µM; IC50 [2]: > 1 µM; IC50 [2, 4]: 0.16 µM
C=C(NC(=O)C(=C)NC(=O)c1csc(C2=N[C@@H]3c4csc(n4)[C@H]4NC(=O)c5csc(n5)[C@H]([C@](C)(O)[C@@H](C)O)NC(=O)[C@H]5CSC(=N5)/C(=C/C)NC(=O)[C@H]([C@@H](C)O)NC(=O)c5csc(n5)[C@]3(CC2)NC(=O)[C@H](C)NC(=O)C(=C)NC(=O)[C@H](C)NC(=O)[C@H]([C@@H](C)CC)N[C@@H]2C=Cc3c([C@H](C)O)cc(nc3[C@H]2O)C(=O)O[C@@H]4C)n1)C(N)=O [Thiostrepton] | – | – | 45.4 | – | – | –
CCN(CC)CCNC(=O)c1c(C)[nH]c(/C=C2\C(=O)Nc3ccc(F)cc32)c1C [Sunitinib Malate] | – | 4.4 | 78.8 | – | – | –
CC(C(=O)[O-])c1cccc(Oc2ccccc2)c1.CC(C(=O)[O-])c1cccc(Oc2ccccc2)c1.[Ca+2] (stereo not shown) [Fenoprofen Calcium] | – | – | – | – | 0.454 | –
CO[C@@H]1[C@H](O)C[C@@H](O[C@@H]2C[C@H](Oc3cc4cc5c(c(O)c4c(O)c3C)C(=O)[C@@H](O[C@H]3C[C@@H](O[C@H]4C[C@@H](O[C@H]6C[C@](C)(O)[C@@H](OC(C)=O)[C@H](C)O6)[C@H](O)[C@@H](C)O4)[C@H](O)[C@@H](C)O3)[C@H]([C@H](OC)C(=O)[C@@H](O)[C@@H](C)O)C5)O[C@H](C)[C@@H]2OC(C)=O)O[C@@H]1C [Chromomycin A3] | – | – | – | – | 0.629 | IC50 ([2]; read-out: IC50): 0.4 µM
Nc1ncnc2c1c(I)cn2[C@@H]1O[C@H](CO)[C@@H](O)[C@H]1O [5-Iodotubercidin] | – | – | – | – | 0.369 | –
CC[C@H](C)[C@H](NC(=O)[C@H]([C@@H](C)CC)N(C)C(C)=O)C(=O)N[C@H](C(=O)N[C@@H](CC(C)C)C(=O)[C@@]1(C)CO1)[C@@H](C)O [Epoxomicin] | – | – | – | – | 0.466 | –
CC(=O)N[C@@H](CC(C)C)C(=O)N[C@@H](CC(C)C)C(=O)N[C@H](C=O)CCCNC(=N)N [Leupeptin HCl] | – | 3.2 | 86.5 | – | – | –
Chondroitin Sulfate | – | – | – | – | 0.535 | IC50 ([2]; read-out: IC50): 11.4 µM
CC(C)C[C@H]1C(=O)N2CCC[C@H]2[C@]2(O)O[C@](NC(=O)[C@@H]3C=C4c5cccc6[nH]c(Br)c(c56)C[C@H]4N(C)C3)(C(C)C)C(=O)N12 [Bromocriptine Mesylate] | – | – | 42.2 | – | – | –
C=C1[C@@H](O)[C@@H]2O[C@]3(CC[C@H](/C=C/[C@@H](C)[C@@H]4CC(C)=C[C@@]5(O[C@H](C[C@@](C)(O)C(=O)O)CC[C@H]5O)O4)O3)CC[C@H]2O[C@@H]1[C@@H](O)C[C@H](C)[C@H]1O[C@@]2(CCCCO2)CC[C@H]1C [Okadaic Acid] | – | – | 48.8 | – | – | –
CCOC(=O)c1c(CSc2ccccc2)n(C)c2cc(Br)c(O)c(CN(C)C)c12 [Arbidol] | – | 6 | 59.2 | – | – | –
OCCN1CCN(CCCN2c3ccccc3Sc3ccc(Cl)cc32)CC1 [Perphenazine] | – | 5.8 | 79.3 | – | – | –
CC[C@H]1CN2CCc3cc(OC)c(OC)cc3[C@@H]2C[C@@H]1C[C@H]1NCCc2cc(OC)c(OC)cc21 [Emetine dihydrochloride hydrate] | – | 0.3 | 89.3 | – | – | –
CCCOc1ccc2nc(NC(=O)OC)[nH]c2c1 [Oxibendazole] | – | – | 47.2 | – | – | –
CN(C)CCOc1ccc(/C(=C(/CCCl)c2ccccc2)c2ccccc2)cc1 [Toremifene] | – | – | – | – | 0.461 | IC50 [2]: 2.7 µM
Bromelain | – | – | – | – | 0.769 | IC50 ([2]; read-out: IC50): 4 µM
O=[N+]([O-])c1ccccc1OCCCCCOc1ccccc1[N+](=O)[O-] [1,5′-Bis(2-Nitrophenoxy)pentane] | – | – | – | – | 0.531 | IC50 ([2]; read-out: IC50): 13 µM
